Assay results published in publication PMC5530816, “Anticancer metallohelices: nanomolar potency and high selectivity” (Chemical Science, 2015).

Key:
Format in all cases: cell-based
[1] = tested on: methicillin-resistant Staphylococcus aureus, USA300 JE2; experiment: MIC by broth dilution, MRSA; conditions: 20 h at 37 °C in Müller–Hinton broth
Experimental: (§1) The compounds were screened against cultures of the gram-positive bacterium methicillin-resistant Staphylococcus aureus, USA300 JE2 ([ref. 28 and 29]) (MRSA) and the gram-negative Escherichia coli, TOP10 (E. coli).[30] Kanamycin[30] was used as a positive control.
(§2) MIC values were established using a […] broth dilution method in cation-adjusted Müller–Hinton (MH) broth. 96-well plates (200 μL of 128 μg mL^–1, 64 μM) complex in MH broth, diluted 2^n μg mL^–1, inoculated with each bacterial strain (10^3 cfu mL^–1) were sealed and growth was monitored over 20 h at 37 °C with an iEMS 96-well plate reader (see ESI ^†).

[2] = tested on: Escherichia coli, TOP10; experiment: MIC by broth dilution, E. coli; conditions: 20 h at 37 °C in Müller–Hinton broth
Experimental: as §1, §2

[3] = tested on: HCT116 p53^–/– (human colon carcinoma, p53-null); experiment: MTT chemosensitivity (IC50), HCT116 p53-/- cells; conditions: 96 h exposure, triplicate, mean with standard deviation (esd)
Excerpt: (§3) The activities of the new compounds and cisplatin were investigated in human tumour cell lines: (a) MDA-MB-468 (human epithelial breast adenocarcinoma);[24] (b) HCT116 p53^+/+ and (c) HCT116 p53^–/–.[25] The HCT116 p53^+/+ and HCT116 p53^–/– cancer cells are human colorectal cancer cell lines that are genetically identical (isogenic) except for the presence or absence of functional p53.[25] These were chosen to enable screening of the effects of p53 status as the loss of p53 function is common genetic event in patient tumours and is strongly associated with increased resistance to many conventional chemotherapeutic agents.[25],[26]
(§4) Compounds were added (100 μM to 5 nM in cell medium) for a further 96 h. 3-(4,5-Dimethylthiazol-[…])-2,5-diphenyl tetrazolium bromide solution (0.5 mg mL^–1, 20 μL per well) was added for a final 4 h. Upon completion all solutions were aspirated, dimethyl sulfoxide (150 μl) was added and absorbance (540 nm) was recorded with a Thermo Scientific Multiskan EX microplate photometer. […]
(§5) 0 ×10 3 c el l s / wel l and i nc u bat ed f or24 hat 37 ° C i n an at mos p h er e of5% C O2, p r i ort o d r u gexp os u r e. […]
(§6) C ell med ia (20 0 μ l) was ad d ed to the referenc e c ells and d iffering c onc entrations of d ru g s olu tion (20 0 μ l) were ad d ed to the remaining wells . […]

[4] = tested on: MDA-MB-468 (human epithelial breast adenocarcinoma); experiment: MTT chemosensitivity (IC50), MDA-MB-468 cells; conditions: 96 h exposure, triplicate, mean with standard deviation (esd)
Excerpt: as §3, §4, §5, §6

[5] = tested on: HCT116 p53^+/+ (human colon carcinoma, wild type p53); experiment: MTT chemosensitivity (IC50), HCT116 p53+/+ cells; conditions: 96 h exposure, triplicate, mean with standard deviation (esd)
Excerpt: as §3, §4, §5, §6

[6] = approximate concentration in μM

MRSA MIC [1] | MRSA MIC [1, 6] | E. coli MIC [2] | E. coli MIC [2, 6] | Structure (SMILES) | IC50 [3] | IC50 [4] | IC50 [5]
1 μg ml^–1 | 2 µM | 2 μg ml^–1 | 4 µM | NC[C@H]1O[C@H](O[C@H]2[C@H](O)[C@@H](O[C@H]3O[C@H](CO)[C@@H](O)[C@H](N)[C@H]3O)[C@H](N)C[C@@H]2N)[C@H](O)[C@@H](O)[C@@H]1O [Kanamycin] |  |  | 
 |  |  |  | N.N.[Cl][Pt][Cl] [cisplatin] | 8.1 ± 1.8 µM | 2.5 ± 0.5 µM | 3.5 ± 1.5 µM
